Reference: patent US8324258B2, “F1F0-ATPase inhibitors and related methods” (The Regents of the University of Michigan, priority 2007, dated 2012)

How the values were obtained:
F1F0-ATPase [1] = biological target: T1, F1F0-ATPase (Bos taurus, UniProt P13621); test: Inhibition of ATP hydrolysis by the F1F0-ATPase; format: biochemical; conditions: IC40: concentration for 40% inhibition
Protocol: (§1) The compounds listed in Table 9 were tested for activity against F1F0-ATPase by measuring ATP synthesis and ATP hydrolysis. In addition, the compounds were assessed for cytotoxicity in Ramos cells Inhibition of ATP synthesis and hydrolysis by the F1F0-ATPase and cytotoxicity in Ramos cells was measured as described in K. M. Johnson et al. Chemistry & Biology 2005, 12, 485-496.

Ramos cells = test: Cytotoxicity (cell death) in Ramos cells; format: cell-based; conditions: Ramos cells
Protocol: as §1

F1F0-ATPase [2] = biological target: T1, F1F0-ATPase; test: Inhibition of ATP synthesis by the F1F0-ATPase; format: biochemical; conditions: IC40: concentration for 40% inhibition
Protocol: as §1

Compound	ATP Hydrolysis (IC40 μM) (F1F0-ATPase [1]) [µM]	EC50 (Ramos cells) [µM]	ATP Synthesis (IC40 μM) (F1F0-ATPase [2]) [µM]
O=C(N=C(NCCc1c[nH]cn1)Nc1cccc(-c2ccccc2)c1)c1cccc(C(F)(F)F)c1 [VI-3, (Z/E)-N-((2-(1H-imidazol-4-yl)ethylamino)(biphenyl-3-ylamino)methylene)-3-(trifluoromethyl)benzamide]	>10	< 10	<10
O=C(N=C(NCCc1c[nH]cn1)Nc1cccc(-c2ccccc2)c1)c1ccc(C(F)(F)F)cc1 [VI-4, (Z/E)-N-((2-(1H-imidazol-4-yl)ethylamino)(biphenyl-3-ylamino)methylene)-4-(trifluoromethyl)benzamide]	>10	> 10	<10
N#Cc1cccc(C(=O)N=C(NCCc2c[nH]cn2)Nc2cccc(-c3ccccc3)c2)c1 [VI-5, (Z/E)-N-((2-(1H-imidazol-4-yl)ethylamino)(biphenyl-3-ylamino)methylene)-3-cyanobenzamide]	>30	> 10	>10
N#Cc1ccc(C(=O)N=C(NCCc2c[nH]cn2)Nc2cccc(-c3ccccc3)c2)cc1 [VI-6, (Z/E)-N-((2-(1H-imidazol-4-yl)ethylamino)(biphenyl-3-ylamino)methylene)-4-cyanobenzamide]	>30	> 10	<10
O=C(N=C(NCCc1c[nH]cn1)Nc1cccc(-c2ccccc2)c1)c1cccc(F)c1 [VI-7, (Z/E)-N-((2-(1H-imidazol-4-yl)ethylamino)(biphenyl-3-ylamino)methylene)-3-fluorobenzamide]	>10	> 10	<10
O=C(N=C(NCCc1c[nH]cn1)Nc1cccc(-c2ccccc2)c1)c1ccc(F)cc1 [VI-8, (Z/E)-N-((2-(1H-imidazol-4-yl)ethylamino)(biphenyl-3-ylamino)methylene)-4-fluorobenzamide]	>10	> 10	<10
O=C(N=C(NCCc1c[nH]cn1)Nc1cccc(-c2ccccc2)c1)c1ccc(Cl)c(Cl)c1 [VI-9, (Z/E)-N-((2-(1H-imidazol-4-yl)ethylamino)(biphenyl-3-ylamino)methylene)-3,4-dichlorobenzamide]	<10	< 10	<10
O=C(N=C(NCCc1c[nH]cn1)Nc1cccc(-c2ccccc2)c1)c1cccc(Br)c1 [VI-10, (Z/E)-N-((2-(1H-imidazol-4-yl)ethylamino)(biphenyl-3-ylamino)methylene)-3-bromobenzamide]	>10	< 10	<10
O=C(N=C(NCCc1c[nH]cn1)Nc1cccc(-c2ccccc2)c1)c1ccc(Br)cc1 [VI-11, (Z/E)-N-((2-(1H-imidazol-4-yl)ethylamino)(biphenyl-3-ylamino)methylene)-4-bromobenzamide]	>10	< 10	<10
O=C(N=C(NCCc1c[nH]cn1)Nc1cccc(-c2ccccc2)c1)c1cccc([N+](=O)[O-])c1 [VI-12, (Z/E)-N-((2-(1H-imidazol-4-yl)ethylamino)(biphenyl-3-ylamino)methylene)-3-nitrobenzamide]	>30	> 10	<10
O=C(N=C(NCCc1c[nH]cn1)Nc1cccc(-c2ccccc2)c1)c1ccc([N+](=O)[O-])cc1 [VI-13, (Z/E)-N-((2-(1H-imidazol-4-yl)ethylamino)-(biphenyl-3-ylamino)methylene)-4-nitrobenzamide]	>30	< 10	<10
O=C(N=C(NCCc1c[nH]cn1)Nc1cccc(-c2ccccc2)c1)c1ccc(Cl)cc1 [VI-14, (Z/E)-N-((2-(1H-imidazol-4-yl)ethylamino)(biphenyl-3-ylamino)methylene)-4-chlorobenzamide]	>10	> 10	<10
(Z/E)-N-((2-(1H-imidazol-5-yl)ethylamino)(4-(methylsulfonyl)phenylamino)methylene)-3-chlorobenzamide [III-36]	>30	> 30	>20
